US9241497B2, “Method and apparatus for treatment of food products” (The United States of America, as represented by the …, priority 2005, dated 2016)

What was measured:
Type in all cases: cell-based, Listeria monocytogenes
L. monocytogenes [1] = experiment: Shelf-life studies: outgrowth on hams during refrigerated storage up to 60 days; conditions: for reduction of pathogen levels relative to untreated samples: after 24 h at 4° C.; for levels of L. monocytogenes compared to untreated control hams (statistical analyses): all volumes tested
From the text: (§1) Bacterial Strains: Using a procedure described previously (Porto, A. C. S., et al., Journal of Food Protection, 65: 308-315 (2002)), approximately equal numbers of each of the following five strains of L. monocytogenes were used as a cocktail in this study: (i) Scott A (serotype 4b, clinical isolate); (ii) H7776 (serotype 4b, frankfurter isolate); (iii) LM-101M (serotype-4b, beef and pork sausage isolate); (iv) F6854 (serotype 1/2a, turkey frankfurter isolate); and (v) MFS-2 (serotype 1/2a, environmental isolate from a pork processing plant). For each experiment isolates were passed twice in brain heart infusion (BHI; Difco Laboratories, Detroit, Mich.) broth at 37° C. so that cells would be in the stationary phase for inoculating hams. Stock cultures were maintained by storage in BHI plus 10% (wt/vol) glycerol in 1.5-ml portions in cryovials and held at −80° C.
Shelf-Life Studies: To evaluate the efficacy of ACS and LAE over the expected refrigerated shelf life of the product, a fresh batch of the same formulation of hams was obtained from the same commercial manufacturer as described previously. For these studies, hams were spot inoculated with 2 mL of the L. monocytogenes cocktail to achieve a target level of either 3.0 or 7.0 log10 CFU per ham. At each inoculation level one portion of the hams was transferred to shrink-wrap bags that were previously sprayed on the inside with 4, 6, or 8 mL of a 1:2 solution of ACS applied using a commercial spraying apparatus (AutoJet Spray System #45570-22-10-120V, Spraying Systems Co., Wheaton, Ill.) and commercial bagging apparatus (Taped Bag Loader #BL189, Cryovac). An otherwise similar portion of the inoculated hams was transferred to shrink-wrap bags that just prior to introduction of the hams were sprayed with 4, 6, or 8 mL of a 5% LAE solution using the commercial spraying and bagging apparatus. Control hams were also spot inoculated with either 3.0 or 7.0 log10 CFU of L. monocytogenes per ham and were transferred to shrink-wrap bags that were not sprayed with either compound. As described previously, hams were vacuum-sealed, submerged in hot (88° C.) water, and stored at 4° C. Hams were analyzed 1, 7, 14, 21, 28, 40, and, 60 days post-inoculation. For each of two trials, three hams were analyzed at each sampling point for both inoculation levels and for both chemicals tested.
(§2) Microbiological Analyses: Surviving L. monocytogenes were enumerated using the USDA/ARS package rinse method (Luchansky J. B., et al., Journal of Food Protection, 65: 567-570 (2002)) and spread-plating 250 uL of the resulting rinse fluid or dilutions thereof onto duplicate modified Oxford agar plates (MOX; Cook, L. V., Isolation and identification of Listeria monocytogenes from red meat, poultry, egg, and environmental samples, Chapter 8, In: USDA/FSIS Microbiology Laboratory Guidebook (3rd ed., Revision 2), Washington, D.C. (1999)) using a sterile cell spreader and incubating for 48 h at 37° C. Listeria numbers were expressed as log10 CFU per ham with each package containing a single ham; the detection limit was 1.48 log10 CFU/ham. Periodically, isolates were retained from randomly selected samples and confirmed as L. monocytogenes following the recommended/standard USDA/FSIS protocol (Cook, 1999).

L. monocytogenes [2] = experiment: Lethality studies: ACS and LAE sprayed into shrink-wrap bags, inoculated hams, 24 h at 4° C.; conditions: ca. 7.0 log10 CFU per ham
From the text: as §1
Lethality Studies: To evaluate the lethality of acidic calcium sulfate (ACS; Safe2O-RTE 01, Mionix Corp., Naperville, Ill.) and lauramide arginine ester (LAE; Ethyl-N-dodecanoyl-L-arginate hydrochloride; CAS No. 60372-77-2; Mirenat-N, Vedeqsa, Barcelona, Spain; also known as lauric arginate), “table brown” hams (water, ground ham trims, brine, dextrose, sugar, sodium phosphate, sodium erythorbate, and sodium nitrite; ca. 3 pounds each ham) were processed and vacuum-sealed by a commercial processor (Hatfield Quality Meats, Hatfield, Pa.). The hams were boxed, transported back to the laboratory, and stored at 4° C. for up to 7 days. Each ham was aseptically removed from its original packaging, spot inoculated with 2 mL of the cocktail using a pipette to achieve a target level of ca. 7.0 log10 CFU per ham, and then transferred to a high-performance shrink-wrap bag (B2570T, Cryovac, Duncan, S.C.). Just prior to introducing the hams, the inside of each shrink-wrap bag was sprayed with 0, 2, 4, 6, or 8 mL of either a 1:1 (1 part ACS: 1 part dH2O) or 1:2 (1 part ACS:2 parts dH2O) solution of ACS or a 5% (5 parts LAE:95 parts dH2O) or 10% (10 parts LAE:90 parts dH2O) solution of LAE. The antimicrobials for these experiments were introduced via a 24-ounce plastic spray bottle (Koch Supplies, Kansas City, Mo.). Each bag was then vacuum sealed to 950 mBar using a Multivac A300/16 vacuum-packaging unit (Sepp Haggemüller K G, Wolfertschwenden, Germany), submerged in hot (88° C.) water for approximately 5 seconds to shrink the bag, and transferred to a 4° C. incubator and held for 24 h. In a single trial, three hams were analyzed for each concentration and volume of ACS and LAE tested after 24 h of refrigerated storage.
as §2, with “Periodically, isolates were retained from randomly selected samples and confirmed as L. monocytogenes following the recommended/standard USDA/FSIS protocol (Cook, 1999).” left out

L. monocytogenes [3] = experiment: Validation studies of initial post-process lethality on hams; conditions: for average decrease in pathogen levels compared to untreated control hams: ca. 7.0 log10 CFU per ham, after 24 h at 4° C.
From the text: as §1
Validation Studies: To validate the initial post-process lethality of ACS and LAE, a fresh batch of the same formulation of hams was obtained from the same commercial manufacturer as described previously. The hams were spot inoculated with 2 mL of the L. monocytogenes cocktail to achieve a target level of ca. 7.0 log10 CFU per ham, transferred to shrink-wrap bags (Cryovac) that were previously sprayed on the inside with 0, 2.5, 4.5, or 6.5 mL of a 1:2 solution of ACS or a 5% solution of LAE, vacuum sealed, submerged in hot (88° C.) water, and placed at 4° C. In each of three trials, three hams were analyzed at each concentration and volume of ACS and LAE tested after 24 h of refrigerated storage.
as §2

## CCCCCCCCCCCC(=O)N[C@@H](CCCNC(=N)N)C(=O)OCC.Cl [LAE, Ethyl-N-dodecanoyl-L-arginate hydrochloride]
L. monocytogenes [1]; 4, 6, and 8 mL of 5% solution of LAE, inoculum ca. 3.0 log10 CFU/ham, 4° C., detection limit 1.48 log10 CFU/ham
  levels of the pathogen within 24 h: below the limit of detection
L. monocytogenes [1]; 4 and 6 mL of 5% LAE solution, inoculum ca. 3.0 log10 CFU/ham, 4° C.
  increase of L. monocytogenes levels after 60 days: ca. 2.0 log10 CFU/ham
L. monocytogenes [1]; 4 mL of 5% solution of LAE, inoculum ca. 7.0 log10 CFU/ham, 4° C.
  increase of pathogen levels thereafter (after 24 h) within 60 days: ca. 4.6 log10 CFU/ham
L. monocytogenes [1]; 4 mL of 5% solution of LAE, inoculum ca. 7.0 log10 CFU/ham
  reduction of pathogen levels relative to untreated samples: ~5.1 log10 CFU/ham
L. monocytogenes [1]; 6 mL of 5% solution of LAE, inoculum ca. 7.0 log10 CFU/ham, 4° C.
  increase of pathogen levels thereafter (after 24 h) within 60 days: ~3.0 log10 CFU/ham
L. monocytogenes [1]; 6 mL of 5% solution of LAE, inoculum ca. 7.0 log10 CFU/ham
  reduction of pathogen levels relative to untreated samples: ~5.4 log10 CFU/ham
L. monocytogenes [1]; 8 mL of 5% LAE solution, inoculum ca. 3.0 log10 CFU/ham, 4° C., detection limit 1.48 log10 CFU/ham
  levels of L. monocytogenes after 60 days: remained below the detection limit
L. monocytogenes [1]; 8 mL of 5% solution of LAE, inoculum ca. 7.0 log10 CFU/ham, 4° C.
  increase of pathogen levels thereafter (after 24 h) within 60 days: ~2.0 log10 CFU/ham
L. monocytogenes [1]; 8 mL of 5% solution of LAE, inoculum ca. 7.0 log10 CFU/ham
  reduction of pathogen levels relative to untreated samples: ~5.5 log10 CFU/ham
L. monocytogenes [1]; initial inoculum of ca. 7.0 log10 CFU/ham, refrigerated storage
  duration of control of further outgrowth of L. monocytogenes: ≥ 28 days
L. monocytogenes [1]; inoculum ca. 3.0 log10 CFU/ham, day 1 through day 40
  levels of L. monocytogenes compared to untreated control hams (statistical analyses): appreciably lower
L. monocytogenes [1]; inoculum ca. 7.0 log10 CFU/ham, day 1 through day 60
  levels of L. monocytogenes compared to untreated control hams (statistical analyses): appreciably lower
L. monocytogenes [2]; 2 mL of 5% solution of LAE
  decrease in L. monocytogenes levels: ca. 3.3 log10 CFU/ham
L. monocytogenes [2]; 4 mL of 5% solution of LAE
  decrease in L. monocytogenes levels: ca. 6.5 log10 CFU/ham
L. monocytogenes [2]; 6 mL of 5% solution of LAE
  decrease in L. monocytogenes levels: ~5.6 log10 CFU/ham
L. monocytogenes [2]; 8 mL of 5% solution of LAE
  decrease in L. monocytogenes levels: ca. 6.5 log10 CFU/ham
L. monocytogenes [2]; 10% solution of LAE, all 4 application volumes (2, 4, 6, 8 mL)
  decrease in pathogen levels: ca. 6.5 log10 CFU/ham
L. monocytogenes [3]; 2.5 mL of 5% solution of LAE
  average decrease in pathogen levels compared to untreated control hams: ca. 4.6 log10 CFU/ham
L. monocytogenes [3]; 4.5 mL of 5% solution of LAE
  average decrease in pathogen levels compared to untreated control hams: ~5.9 log10 CFU/ham
L. monocytogenes [3]; 5% solution of LAE, within 24 h at 4° C.
  reduction of levels of L. monocytogenes on the surface of hams (conclusion): at least 5.0 log10 CFU/ham
L. monocytogenes [3]; 6.5 mL of 5% solution of LAE
  average decrease in pathogen levels compared to untreated control hams: ~6.1 log10 CFU/ham
